Source: US5338550A, “Stereoisomer therapy” (priority 1992, dated 1994)
≈ marks a conversion by molar mass, not a printed value.

Columns and labels:
Crystal lattice energy = assay type: physicochemical
[1] = Density (bulk, tapped, tablet); assay type: physicochemical
Experimental: Next, the granulations are fed to a Manesty layer press fitted with two hoppers, one hopper is filled with the slow-layer granulation, the other hopper is filled with the fast-layer granulation. A bilayer tablet dosage form is then compressed by first forming a 690 mg second layer, then a 230 mg first layer is pressed in release retaining relation to the second layer. The first layer and second layers are pressed together under a pressure head of two tons. This manufacturing process produces the bilayer dosage form. […] The final composition of the second layer comprises 58 wt % racemic (±) ibuprofen, 15 wt % hydroxypropylmethylcellulose having a 242,000 molecular weight, 25 wt % hydroxypropylmethylcellulose having a 9,200 molecular weight and 2 wt % stearic acid.

crystal lattice energy (Crystal lattice energy) [joules/g] | bulk density [1] [g/cc] | tablet density [1] [g/cc] | tapped density [1] [g/cc] | solubility (physchem; artificial gastric juice) [µg/mL] | solubility (physchem; artificial intestinal juice) [µg/mL] | solubility (physchem; water) [µg/mL] | Compound
90.3 | 0.277 | 1.038 | 0.391 | 131 (≈ 635 µM) | 6980 (≈ 33800 µM) | 134 (≈ 650 µM) | CC(C)Cc1ccc([C@H](C)C(=O)O)cc1 [S(+) ibuprofen]
117 | 0.328 | 1.052 | 0.483 | 79 (≈ 383 µM) | 5910 (≈ 28600 µM) | 82 (≈ 398 µM) | CC(C)Cc1ccc(C(C)C(=O)O)cc1 (racemic) [racemic ibuprofen]
